Values of other authors in patent US20070264289A1, “COMPOSITIONS AND METHODS OF ADMINISTERING DOXEPIN TO MUCOSAL TISSUE” (EOT Research Inc., priority 2003, published 2007).
Where a name gives a salt, the structure may show the parent alone.

What was measured:
[1] = metabolite formed in the liver after systemic absorption of doxepin
[2] = systemic doxepin; drowsiness in a significant number of patients at this range

SMILES | half-life [1] [h] | target plasma therapeutic range for treatment of depression [2] [ng/mL]
CNCCC=C1c2ccccc2COc2ccccc21 [Desmethyldoxepin, desmethyldoxepin] | 28 to 52 | 
CN(C)CCC=C1c2ccccc2COc2ccccc21 [doxepin, N,N-dimethyldibenz(b,e)oxepin-propylamine hydrochloride] |  | 30 to 150
